Results published in patent publication US5780242A, “Bioassay for the screening of ION channel active molecules” (priority 1995, dated 1998).
“Also recorded” adds a separate entry of the source. Where a name gives a salt, the structure may show the parent alone. Read-outs that look alike come from different tables or passages of the source.

What was measured:
[1] = mice; cited from earlier work
[2] = rats; cited from earlier work
[3] = tested on: AChE preparation (sodium channel neuroreceptor); test: Circular dichroism bioassay at 222 nm: temperature-dependent helix-coil transition of the AChE/neuroreceptor preparation in presence of drug; type: binding, bovine; details: for molar ellipticity [θ] at 222 nm, 30° C. / molar ellipticity [θ] at 222 nm, 35° C. / molar ellipticity [θ] at 222 nm, 38° C. / stabilization of the alpha helix / prevention of the helical transition between 30° C. and 35° C.: pH 7.0; for temperature needed to elicit the helix-coil transition in presence of drug: versus preparation without drug; for stabilization of the alpha helix / prevention of the helical transition between 30° C. and 35° C.: fresh preparations
Experimental: (§1) A baseline of the solution is obtained using 222 nm without removing the cell after a run is begun to allow for thermal stabilization. Prior to adding the drug to the enzyme, a blank run consisting only of the drug at the same concentration used in the enzyme study is made. To obtain control data, temperature changes of 5 degrees centigrade in the neuroreceptor solution alone are made using a Forma water bath. Then the drug is added to a sample of the purified neuroreceptor solution, and the stabilizing effect of the drug on the temperature-related conformational changes is noted. All temperature runs are allowed to equilibrate for one hour before data is collected.
All studies are made in 1 mm, 5 mm and 2 mm cells using a Jouan Dichrograph II at 1×10^-5 O.D./mm sensitivity. The sample solution consists of 30 mM Na2 HPO4, pH 7.0, and the enzyme. Protein concentration is determined empirically and then measured by the Lowry method after the run. Lowry, et al., J Biol Chem, 193: 265-275 (1951). Samples are taken directly from G-200 fractions or DEAE-Cellulose fractions previously dialyzed against 30 mM Na2 HPO4, pH 7.0.
Thermal studies are carried out in the 10 mm cell. Care must be taken not to misplace the cell in the cell holder to avoid spectral changes. Additionally, since the absorption is affected by pressure, the ORD cell's glass stopper must be gently seated. for the thermal runs of Prep A, a micro-thermometer is used to record the temperature in the ORD cell after each spectral recording.
The routine consists of beginning a CD spectral scan followed by running each activity blank at that temperature using 3 minute reading intervals. The next CD spectral scan is made after recording the temperature in the ORD cell. The data recorded consists of duplicates of CD spectra with cell temperatures varying 5 degrees centigrade at 222 nm.
Pilocarpine, reagent grade, was used at 1.33×10^-6 M in the sample solutions.
A buffer solution of 20 mM Na2 HPO4, pH 7.0, gives minimal absorption problems in the range 300 nm to 195 nm. Enzyme solutions contain from 21 μg/ml to 31 μ/ml of protein in buffer. Total ORD cell volume is 3.0 ml.
A buffer solution of 30 Na2 HPO4, pH 7.0,gave minimal absorption problems in the range 300 nm to 195 nm. Enzyme solutions contained from 21 μg/ml to 31 μg/ml of protein in buffer. Total ORD cell volume was 3.0 ml. Drugs were added to ORD cells in 0.002 ml volumes in order to minimize dilution effects. A Roussel-Jouan Dichrograph 11 sensitive to 1×10^-5 dichroic absorption unit per recording mm was used with a 10 mm, strain free, quartz ORD cell (Pyrocell, New Jersey, U.S.A.).
(§2) Again CD spectra were obtained using the above thermal apparatus over the range of 230 nm to 215 nm. A baseline of the enzyme solution was obtained using 300 nm to 285 nm without removing the cell after a run was begun. Prior to adding the drug to the enzyme, a blank run consisting only of the drug at the same concentration used in the enzyme study was made. To obtain control data, temperature changes in the enzyme solution alone were made using a Forma water bath. Then the drug was added to another enzyme solution with the same protein concentration which came from the stock solution, and temperature effects were noted. All temperature runs were allowed to equilibrate for one hour before data were collected.
Data for CD was expressed so that experimental values could be compared with published helix composition values. All graphs and raw data were expressed as molar el lipticity [.THETA.] based on mean residue molecular weight because the true molecular weight of AChE has not been established for the brain enzyme.

[4] = cited from earlier work
[5] = local anesthesia; cited from earlier work
[6] = Circular dichroism blank run of the drug alone; type: physicochemical; details: for ellipticity of drug alone: 215 nm to 230 nm / 222 nm; for molar ellipticity [θ] of drug alone, 30° C.: no enzyme, 222 nm
Experimental: as §1, §2

AChE = AChE (Bos taurus, UniProt P23795); test: Salt study: effect of MgSO4 on AChE of Prep E (AChE activity and CD helix); type: biochemical, bovine
Experimental: An AChE preparation (Prep E) was made using the scheme of S. L. Chan, supra "Purification of Beef Brain Acetylcholinesterase" Proceedings of the Western Pharmacology Society, 13:43-47, 1970. The AChE in 0.4M NaCl/[…] Na2 HPO4 was lyophilized and resuspended in 2.5 ml deionized water. The CD spectrum was made, and activity was checked qualitatively. The sample was dialyzed against 100 mM MgSO4 for 12 hours. AChE activity was qualitatively checked with CD. The sample was then redialyzed against 0.4M NaCl/30 mM Na2 HPO4 for 12 hours, checked for AChE activity and for CD absorption.
Activity of AChE was determined at 25° C.-30° C. and pH 8.0 by the spectrophotometric method of Ellman et al (Biochemical Pharmacology, 7:88-95 (1961). Measurements were made in the Hitachi Perkin-Elmer Model 139 spectrophotometer at 412 nm and 0.1 nm slit. One unit of AChE activity was defined as 1 μM of ATC (acetyl thiocholine iodide,Sigma) hydrolyzed per hour at 25° C. Specific activity is expressed as μmoles ATC hydrolyzed/ mg protein/ hour.

[7] = 7 Day old AChE with drug, 222 nm
[8] = AChE Prep B (7 Days Later) plus drug 1.33×10^-6 M, 222 nm
[9] = AChE Prep B (7 Days Later) plus drug 1.33×10^-6 M
[10] = AChE Prep B (7 Days Later), 222 nm
[11] = Fresh AChE (Prep C) plus drug 1.33×10^-6 M, 222 nm
[12] = Fresh AChE (Prep C) plus drug 1.33×10^-6 M
[13] = Fresh AChE (Prep B) plus drug 1.33×10^-6 M

Sequence of AChE (P23795 31-613): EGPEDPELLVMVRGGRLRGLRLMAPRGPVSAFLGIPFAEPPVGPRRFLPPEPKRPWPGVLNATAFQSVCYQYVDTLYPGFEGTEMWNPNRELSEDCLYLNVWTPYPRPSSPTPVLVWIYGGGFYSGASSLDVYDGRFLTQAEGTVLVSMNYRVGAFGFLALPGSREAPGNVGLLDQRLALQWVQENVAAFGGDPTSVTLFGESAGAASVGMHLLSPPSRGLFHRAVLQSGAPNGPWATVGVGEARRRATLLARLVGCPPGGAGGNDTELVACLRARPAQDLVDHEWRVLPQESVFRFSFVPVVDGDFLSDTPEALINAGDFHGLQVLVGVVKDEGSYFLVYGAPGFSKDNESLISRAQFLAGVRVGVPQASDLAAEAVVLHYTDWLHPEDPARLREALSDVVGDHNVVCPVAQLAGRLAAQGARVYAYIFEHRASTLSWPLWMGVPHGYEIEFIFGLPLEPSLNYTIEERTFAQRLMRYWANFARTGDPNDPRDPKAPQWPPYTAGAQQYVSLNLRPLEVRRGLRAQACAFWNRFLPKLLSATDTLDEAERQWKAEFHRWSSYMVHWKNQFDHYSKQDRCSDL

## Cc1ccccc1N [ortho-toliudine]
[1]
  carcinogenicity: carcinogenic
[2]
  carcinogenicity: carcinogenic

## CCN(CC)CC(=O)Nc1c(C)cccc1C [Lidocaine, Lidocaine hydrochloride monohydrate]
[3]; [7]
  % Loss of Helix (30° C. to 35° C.): 16.8%
[3]; [8]
  [θ]30 - [θ]35: 600
[3]; [9]
  molar ellipticity [θ] at 222 nm, 30° C.: -3,590
[3]; [10]
  Difference of Lidocaine from Above AChE, 30° C.: +540
  Difference of Lidocaine from Above AChE, 35° C.: +480
[3]; [11]
  [θ]30 - [θ]35: 100
  [θ]38 - [θ]35: 770
[3]; [12]
  molar ellipticity [θ] at 222 nm, 30° C.: -5,560
  molar ellipticity [θ] at 222 nm, 35° C.: -5,500
  molar ellipticity [θ] at 222 nm, 38° C.: -4,830
[3]; Fresh AChE with drug, 222 nm
  % Loss of Helix (30° C. to 35° C.): 1.8%
  % Loss of Helix (35° C. to 40° C.): 13.6%
[3]
  temperature needed to elicit the helix-coil transition in presence of drug: Higher temperatures were necessary
[4]; compared with procaine
  allergic reactions: fewer known allergic reactions than procaine
[4]; in vivo
  side effect: drowsiness
[5]
  duration of effective action: 1 to 2 h
[6]
  ellipticity of drug alone: no ellipticity

## CCCN(CC)C(CC)C(=O)Nc1c(C)cccc1C (stereo not drawn) [etidocaine]
[5]
  duration of effective action: 4 to 18 h

## O=S(=O)([O-])[O-].[Mg+2] [MgSO4]
AChE; AChE Prep E in 100 mM MgSO4, CD
  random coil at 195 nm: 35%
AChE; Prep E dialyzed against 100 mM MgSO4 for 12 hours
  AChE Qualitative Activity: 0
AChE; Prep E dialyzed against 100 mM MgSO4 for 12 hours, CD
  Helix 220 nm: 16 mm

## CCN(CC)CCOC(=O)c1ccc(N)cc1 [procaine]
[5]
  duration of effective action: 1 to 2 h

## Cc1cccc(C)c1NC(=O)C1CCCCN1C (stereo not drawn) [mepivacaine]
[5]
  duration of effective action: 2 to 3 h
  onset of action: rapid

## CC[C@@H]1C(=O)OC[C@@H]1Cc1cncn1C [Pilocarpine]
[3]; [7]
  % Loss of Helix (30° C. to 35° C.): 20.7%
[3]; [8]
  [θ]30 - [θ]35: 720
[3]; [9]
  molar ellipticity [θ] at 222 nm, 30° C.: -3,590
  molar ellipticity [θ] at 222 nm, 35° C.: -2,280
[3]; Fresh AChE (Prep B) plus drug 1.33×10^-6 M, 222 nm
  [θ]30 - [θ]35: 800
[3]; [13]
  molar ellipticity [θ] at 222 nm, 30° C.: -11,300
  molar ellipticity [θ] at 222 nm, 35° C.: -10,500
[3]; [11]
  [θ]30 - [θ]35: 170
  [θ]38 - [θ]35: 780
[3]; [12]
  molar ellipticity [θ] at 222 nm, 30° C.: -4,490
  molar ellipticity [θ] at 222 nm, 35° C.: -4,320
  molar ellipticity [θ] at 222 nm, 38° C.: -3,540
[3]; Fresh AChE with drug, 222 nm
  % Loss of Helix (30° C. to 35° C.): 7.1%
  % Loss of Helix (35° C. to 40° C.): 17.5%
[3]; enzyme preparations more than one week old / not freshly prepared
  stabilization of helix in preparations not freshly prepared: not observed; also recorded: will not be protected
[3]; 222 nm
  stabilization of the alpha helix / prevention of the helical transition between 30° C. and 35° C.: appear to stabilize the helix
[3]; 222 nm, listed as pilocarpine
  stabilization of the alpha helix / prevention of the helical transition between 30° C. and 35° C.: prevent the helical transition
[3]
  temperature needed to elicit the helix-coil transition in presence of drug: Higher temperatures were necessary
[6]
  ellipticity of drug alone: positive ellipticity
  molar ellipticity [θ] of drug alone, 30° C.: +5,450

## CCCCN1CCCCC1C(=O)Nc1c(C)cccc1C (stereo not drawn) [bupivacaine]
[5]
  duration of effective action: 4 to 18 h

## CCCNC(C)C(=O)Nc1ccccc1C (stereo not drawn) [prilocaine]
[4]; doses greater than 400 mg
  side effect: methemoglobinemia
[4]; in vivo
  side effect: drowsiness
[5]
  duration of effective action: 2 to 3 h

## CN1CCCC1c1cccnc1 (stereo not drawn) [Nicotine]
[6]
  molar ellipticity [θ] of drug alone, 30° C.: -21,400
